pIC50: −log10 of the molar value.
How the values were obtained:
CDK9/CycT1 = biological target: T1, CDK9/CycT1 (Homo sapiens, UniProt P50750); test: CDK9/CycT1 high ATP kinase assay (TR-FRET, Method 1b); type: biochemical; details: 2 mM ATP
T1 construct: Recombinant full-length His-tagged human CDK9 and CycT1; His; purchased Invitrogen PV4131; host or cells: insect cells
Protocol: 1b. CDK9/CyeT1 High ATP Kinase Assay
CDK9/CycT1-inhibitory activity of compounds of the present invention at a high ATP concentration after preincubation of enzyme and test compounds was quantified employing the CDK9/CycT1 TR-FRET assay as described in the following paragraphs.
Recombinant full-length His-tagged human CDK9 and CycT1, expressed in insect cells and purified by Ni-NTA affinity chromatography, were purchase from Invitrogen (Cat. No PV4131). As substrate for the kinase reaction biotinylated peptide biotin-Ttds-YISPLKSPYKISEG (C-terminus in amid form) was used which can be purchased e.g. form the company JERINI peptide technologies (Berlin, Germany).
(§1) For the assay 50 nl of a 100 fold concentrated solution of the test compound in DMSO was pipetted into a black low volume 384 well microtiter plate (Greiner Bio-One, Frickenhausen, Germany), 2 μl of a solution of CDK9/CycT1 in aqueous assay buffer [50 mM Tris/HCl pH 8.0, 10 mM MgCl2, 1.0 mM dithiothreitol, 0.1 mM sodium ortho-vanadate, 0.01% (v/v) Nonidet-P40 (Sigma)] were added and the mixture was incubated for […] at 22° C. to allow pre-binding of the test compounds to the enzyme before the start of the kinase reaction. Then the kinase reaction was started by the addition of 3 μl of a solution of adenosine-tri-phosphate (ATP, 3.3 mM=>final conc. in the 5 μl assay volume is 2 mM) and substrate (1.67 μM=>final conc. in the 5 μl assay volume is 1 μM) in assay buffer and the resulting mixture was incubated for a reaction time of […] at 22° C. The concentration of CDK9/CycT1 was adjusted depending of the activity of the enzyme lot and was chosen appropriate to have the assay in the linear range, typical concentrations were in the range of 0.5 ng/ml. The reaction was stopped by the addition of 5 μl of a solution of TR-FRET detection reagents (0.2 μl streptavidine-XL665 [Cisbio Bioassays, Codolet, France] and 1 nM anti-RB(pSer807/pSer811)-antibody from BD Pharmingen [#558389] and 1.2 nM LANCE EU-W1024 labeled anti-mouse IgG antibody [Perkin-Elmer, product no. AD0077]) in an aqueous EDTA-solution (100 mM EDTA, 0.2% (w/v) bovine serum albumin in 100 mM HEPES/NaOH pH 7.0).
(§2) The resulting mixture was incubated 1 h at 22° C. to allow the formation of complex between the phosphorylated biotinylated peptide and the detection reagents. Subsequently the amount of phosphorylated substrate was evaluated by measurement of the resonance energy transfer from the Eu-chelate to the streptavidine-XL. Therefore, the fluorescence emissions at 620 nm and 665 nm after excitation at 350 nm was measured in a HTRF reader, e.g. a Rubystar (BMG Labtechnologies, Offenburg, Germany) or a Viewlux (Perkin-Elmer). The ratio of the emissions at 665 nm and at […] was taken as the measure for the amount of phosphorylated substrate. The data were normalised (enzyme reaction without inhibitor=0% inhibition, all other assay components but no enzyme=100% inhibition).

CDK2/CycE = biological target: T2, CDK2/CycE (Homo sapiens, UniProt P24941); test: CDK2/CycE kinase assay (TR-FRET, Method 2); type: biochemical; details: Method 2, 10 μM ATP
T2 construct: GST; purchased ProQinase GmbH (Freiburg, Germany); host or cells: insect cells (Sf9)
From the text: 2. CDK2/CycE Kinase Assay:
CDK2/CycE -inhibitory activity of compounds of the present invention was quantified employing the CDK2/CycE TR-FRET assay as described in the following paragraphs:
Recombinant fusion proteins of GST and human CDK2 and of GST and human CycE, expressed in insect cells (Sf9) and purified by Glutathion-Sepharose affinity chromatography, were purchased from ProQinase GmbH (Freiburg, Germany). As substrate for the kinase reaction biotinylated peptide biotin-Ttds-YISPLKSPYKISEG (C-terminus in amid form) was used which can be purchased e.g. form the company JERINI Peptide Technologies (Berlin, Germany).
as §1, with “of CDK2/CycE” for “of CDK9/CycT1”, “(ATP, 16.7” for “(ATP, 3.3 mM=>final conc. in the 5 μl assay volume is 2 mM) and substrate (1.67”, “is 10 μM) and substrate (1.25 μM=>final conc. in the 5 μl assay volume is 0.75” for “is 1”, “of 130” for “of 0.5”, “(0.2 μM” for “(0.2 μl”
as §2, with “TR-FRET” for “HTRF”

T1 sequence (P50750 whole entry): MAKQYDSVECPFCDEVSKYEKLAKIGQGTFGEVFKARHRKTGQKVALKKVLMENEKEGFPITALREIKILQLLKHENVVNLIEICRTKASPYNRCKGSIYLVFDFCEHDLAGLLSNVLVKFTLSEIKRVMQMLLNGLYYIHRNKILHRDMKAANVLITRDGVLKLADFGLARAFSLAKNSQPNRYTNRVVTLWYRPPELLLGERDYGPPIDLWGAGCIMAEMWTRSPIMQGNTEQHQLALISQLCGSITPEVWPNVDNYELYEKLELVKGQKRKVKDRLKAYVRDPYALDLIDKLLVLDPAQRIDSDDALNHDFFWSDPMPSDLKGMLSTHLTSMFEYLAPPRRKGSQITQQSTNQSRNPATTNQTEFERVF
T1 sequence (O60563 whole entry partner): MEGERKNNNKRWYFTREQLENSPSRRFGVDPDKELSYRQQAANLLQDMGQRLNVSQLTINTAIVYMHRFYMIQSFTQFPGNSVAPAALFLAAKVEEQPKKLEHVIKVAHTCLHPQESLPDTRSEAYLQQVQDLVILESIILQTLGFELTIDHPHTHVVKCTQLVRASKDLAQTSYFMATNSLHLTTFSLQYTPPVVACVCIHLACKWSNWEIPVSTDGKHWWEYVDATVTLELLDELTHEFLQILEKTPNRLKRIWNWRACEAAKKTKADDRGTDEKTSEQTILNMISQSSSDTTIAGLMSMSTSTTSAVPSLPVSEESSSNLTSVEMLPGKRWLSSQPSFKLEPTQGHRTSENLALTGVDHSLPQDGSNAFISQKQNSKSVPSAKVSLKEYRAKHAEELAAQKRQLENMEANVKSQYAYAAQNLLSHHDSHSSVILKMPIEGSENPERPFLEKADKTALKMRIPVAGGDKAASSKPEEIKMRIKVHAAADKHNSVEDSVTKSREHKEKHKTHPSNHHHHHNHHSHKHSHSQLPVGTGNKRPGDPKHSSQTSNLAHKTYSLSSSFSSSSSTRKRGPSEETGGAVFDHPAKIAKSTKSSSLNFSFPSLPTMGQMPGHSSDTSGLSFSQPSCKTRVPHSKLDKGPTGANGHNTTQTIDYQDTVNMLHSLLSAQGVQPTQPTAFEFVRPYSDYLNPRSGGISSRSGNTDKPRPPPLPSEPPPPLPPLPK

SMILES	pIC50 (CDK9/CycT1)	pIC50 (CDK2/CycE)
CCCS(=O)(=O)Cc1cccc(Nc2ncc(F)c(-c3ccc(F)cc3F)n2)c1 [Example 8, 4-(2,4-difluorophenyl)-5-fluoro-N-{3-[(propylsulfonyl)methyl]phenyl}pyrimidin-2-amine]	6.04	6.24
CC(C)(C)S(=O)(=O)Cc1cccc(Nc2ncc(F)c(-c3ccc(F)cc3F)n2)c1 [Example 3, N-{3-[(tert-Butylsulfonyl)methyl]phenyl}-4-(2,4-difluorophenyl)-5-fluoropyrimidin-2-amine]	4.84	6.00
CS(=O)(=O)Cc1cc(Nc2ncc(F)c(-c3ccc(F)cc3F)n2)cc(S(F)(F)(F)(F)F)c1 [Example 6, 4-(2,4-Difluorophenyl)-5-fluoro-N-{3-[(methylsulfonyl)methyl]-5-(pentafluoro-λ^6-sulfanyl)phenyl}pyrimidin-2-amine]	7.00	5.75
CS(=O)(=O)Cc1cc(F)cc(Nc2ncc(F)c(-c3ccc(F)cc3F)n2)c1 [Example 10, 4-(2,4-Difluorophenyl)-5-fluoro-N-{3-fluoro-5-[(methylsulfonyl)methyl]phenyl}pyrimidin-2-amine]	5.64	5.24
CCCS(=O)(=O)Cc1cc(F)cc(Nc2ncc(F)c(-c3ccc(F)cc3F)n2)c1 [Example 13, 4-(2,4-Difluorophenyl)-5-fluoro-N-{3-fluoro-5-[(propylsulfonyl)methyl]phenyl}pyrimidin-2-amine]	5.64	6.24
CS(=O)(=O)Cc1cccc(Nc2ncc(F)c(-c3ccc(F)cc3F)n2)c1 [Example 5, 4-(2,4-Difluorophenyl)-5-fluoro-N-{3-[(methylsulfonyl)methyl]phenyl}pyrimidin-2-amine]	6.07	6.33
O=S(=O)(Cc1cccc(Nc2ncc(F)c(-c3ccc(F)cc3F)n2)c1)C1CC1 [Example 9, N-{3-[(Cyclopropylsulfonyl)methyl]phenyl}-4-(2,4-difluorophenyl)-5-fluoropyrimidin-2-amine]	6.48	6.39
COCCS(=O)(=O)Cc1cccc(Nc2ncc(F)c(-c3ccc(F)cc3F)n2)c1 [Example 4, 4-(2,4-Difluorophenyl)-5-fluoro-N-(3-{[(2-methoxyethyl)sulfonyl]methyl}phenyl)pyrimidin-2-amine]	5.65	5.59
CS(=O)(=O)Cc1cc(F)cc(Nc2ncc(F)c(-c3ccc(F)c(F)c3F)n2)c1 [Example 12, 5-fluoro-N-{3-fluoro-5-[(methylsulfonyl)methyl]phenyl}-4-(2,3,4-trifluorophenyl)pyrimidin-2-amine]	6.57	6.46
CS(=O)(=O)Cc1cc(F)cc(Nc2ncc(F)c(-c3cc(F)c(F)cc3F)n2)c1 [Example 11, 5-Fluoro-N-{3-fluoro-5-[(methylsulfonyl)methyl]phenyl}-4-(2,4,5-trifluorophenyl)pyrimidin-2-amine]	< 4.70	< 4.70
CC(C)S(=O)(=O)Cc1cccc(Nc2ncc(F)c(-c3ccc(F)cc3F)n2)c1 [Example 2, 4-(2,4-Difluorophenyl)-5-fluoro-N-{3-[(propan-2-ylsulfonyl)methyl]phenyl}pyrimidin-2-amine]	5.65	5.92

Reference: patent US20150259300A1, “4-(ORTHO)-FLUOROPHENYL-5-FLUOROPYRIMIDIN-2-YL AMINES CONTAINING A SULFONE GROUP” (BAYER PHARMA AKTIENGESELLSCHAFT, priority 2012, published 2015)
